US20240109893A1, “PREPARATION AND APPLICATION METHOD OF HETEROCYCLIC COMPOUNDS AS KRAS INHIBITOR” (SHANGHAI KECHOW PHARMA, INC., priority 2020, published 2024)

system: H358 cells; assay: Cell activity experiment: activity test of H358 cells (MTT, 5 days); format: cell-based; conditions: Homo sapiens, NCI-H358, 120 h, 5 days incubation, absorbance 492 nm
Procedure: Example: Cell Activity Experiment
1. Cells: H358 purchased from Shanghai EK-Bioscience Biotechnology Co., Ltd.
2. Reagents: RPMI 1640 medium, Tryple, MTT (5 mg/mL), DMSO, and DPBS.
3. Instruments: an incubator at 37° C. and 5% CO2, a UTRAO microplate reader, a biosafety cabinet, a cell counting plate, and an Optec optical microscope.
4. Experimental consumables: 96-well plate Item No.: 3599, and 96-well round-bottomed dispensing plate.
Experimental Steps of Activity Test of H358 Cells:
1. Plating: Cells in the logarithmic growth phase were digested with Tryple and terminated with a fresh medium, and the cells were counted; and the cell concentration was adjusted to 55555 cells/mL with a fresh medium, wherein 90 μL was added to each well, and those on edges were filled with sterile DPBS.
2. The plate was incubated in the incubator at 37° C. and 5% CO2 for 24 h, so that the cells cover the bottom of the well by about 50%.
3. Drug preparation for experimental group: The drug was dissolved in DMSO to prepare a 20 mmol/L stock solution; the stock solution was further diluted with DMSO to 2 mmol/L, which was serially 3-fold diluted to form an […]-concentration gradient, resulting in a 200× serial compound solution; 10 μL of the serial compound solution was taken and added to 190 μLμL of RPMI1640 medium to obtain a 10× serial compound solution; and 10 μL of the 10× compound solution was taken and added to 90 μL 96-well cell culture plate, with three replicates per grade. The concentration gradient of the compound in the 96-well cell culture plate was […], 1.524158 nM, 4.572474 nM, 13.717420 nM, 41.152260 nM, 123.456800 nM, 370.370400 nM, 1111.111000 nM, 3333.333000 nM, and 10000.000000 nM, with 100 μL per well, and the final concentration of DMSO was 0.5%.
The control group contained the same volume of solvent as the experimental group and was diluted with a complete medium, with 100 μL per well.
4. Incubation was carried out for 5 days in an incubator with 5% CO2 at 37° C.
5. After 5 days, 10 μL of an MTT solution (5 mg/mL) was added to each well, and the culture was continued for 4 h.
6. The culture was terminated, and the culture solution was carefully sucked out of the well.
7. 150 μL of dimethyl sulfoxide (DMSO) was added to each of the null wells in the experimental group and the control group; and after shaking at a medium speed for 10 s, the crystal was fully dissolved, and the optical absorbance value thereof was measured at a wavelength of 492 nm.

Structure (SMILES) | IC50
C=C(F)C(=O)N1CC[C@@H]2[C@H]1CN2c1nc(OC[C@@H]2CCCN2C)nc2c(F)c(-c3ccc(F)c4c3CCCC4)ncc12 [Example 26] | 0.04 µM
C=CC(=O)N1CC[C@@H]2[C@H]1CN2c1nc(OC[C@@H]2C[C@@H](F)CN2C)nc2c(F)c(-c3ccc(F)c4c3CCCC4)ncc12 [Example 27] | 0.015 µM
C=C(F)C(=O)N1CC[C@@H]2[C@H]1CN2c1nc(OC[C@@H]2C[C@@H](F)CN2C)nc2c(F)c(-c3ccc(F)c4c3CCCC4)ncc12 [Example 28] | 0.08 µM
C=CC(=O)N1CC[C@@H]2[C@H]1CN2c1nc(OCC23CCCN2CCC3)nc2c(F)c(-c3ccc(F)c4c3CCCC4)ncc12 [Example 29] | 0.01 µM
C=C(F)C(=O)N1CC[C@@H]2[C@H]1CN2c1nc(OCC23CCCN2CCC3)nc2c(F)c(-c3ccc(F)c4c3CCCC4)ncc12 [Example 30] | 0.06 µM
C=CC(=O)N1CC[C@@H]2[C@H]1CN2c1nc(OC[C@@]23CCCN2C[C@H](F)C3)nc2c(F)c(-c3ccc(F)c4c3CCCC4)ncc12 [Example 31] | 0.008 µM
C=C(F)C(=O)N1CC[C@@H]2[C@H]1CN2c1nc(OC[C@@]23CCCN2C[C@H](F)C3)nc2c(F)c(-c3ccc(F)c4c3CCCC4)ncc12 [Example 32] | 0.035 µM
C=CC(=O)N1CCN(c2nc(OC[C@@H]3CCCN3C)nc3c(F)c(-c4cncc5c4CCCC5)ncc23)C[C@@H]1CC#N [Example 33, 2-((S)-1-acryloyl-4-(8-fluoro-2-(((S)-1-methylpyrrolidin-2-yl)methoxy)-7-(5,6,7,8-tetrahydroisoquinoline-4-yl)pyridino[4,3-d]pyrimidin-4-yl)piperazin-2-yl)acetonitrile] | 0.025 µM
C=C(F)C(=O)N1CCN(c2nc(OC[C@@H]3CCCN3C)nc3c(F)c(-c4cncc5c4CCCC5)ncc23)C[C@@H]1CC#N [Example 34, 2-((S)-4-(8-fluoro-2-(((S)-1-methylpyrrolidin-2-yl)methoxy)-7-(5,6,7,8-tetrahydroisoquinolin-4-yl)pyridino[4,3-d]pyrimidin-4-yl)-1-(2-fluoroacryloyl)piperazin-2-yl)acetonitrile] | 0.08 µM
C=CC(=O)N1CCN(c2nc(OC[C@@H]3C[C@@H](F)CN3C)nc3c(F)c(-c4cncc5c4CCCC5)ncc23)C[C@@H]1CC#N [Example 35] | 0.015 µM
C=C(F)C(=O)N1CCN(c2nc(OC[C@@H]3C[C@@H](F)CN3C)nc3c(F)c(-c4cncc5c4CCCC5)ncc23)C[C@@H]1CC#N [Example 36] | 0.12 µM
C=CC(=O)N1CCN(c2nc(OCC34CCCN3CCC4)nc3c(F)c(-c4cncc5c4CCCC5)ncc23)C[C@@H]1CC#N [Example 37, (S)-2-(1-acryloyl-4-(8-fluoro-2-((tetrahydro-1H-pyrrolizin-7a(5H)-yl)methoxy)-7-(5,6,7,8-tetrahydroisoquinolin-4-yl)pyridino[4,3-d]pyrimidin-4-yl)piperazin-2-yl)acetonitrile] | 0.015 µM
C=C(F)C(=O)N1CCN(c2nc(OCC34CCCN3CCC4)nc3c(F)c(-c4cncc5c4CCCC5)ncc23)C[C@@H]1CC#N [Example 38, (S)-2-(4-(8-fluoro-2-((tetrahydro-1H-pyrrolizin-7a(5H)-yl)methoxy)-7-(5,6,7,8-tetrahydroisoquinolin-4-yl)pyridino[4,3-d]pyrimidin-4-yl)-1-(2-fluoroacryloyl)piperazin-2-yl)acetonitrile] | 0.036 µM
C=CC(=O)N1CCN(c2nc(OC[C@@]34CCCN3C[C@H](F)C4)nc3c(F)c(-c4cncc5c4CCCC5)ncc23)C[C@@H]1CC#N [Example 39] | 0.008 µM
C=C(F)C(=O)N1CCN(c2nc(OC[C@@]34CCCN3C[C@H](F)C4)nc3c(F)c(-c4cncc5c4CCCC5)ncc23)C[C@@H]1CC#N [Example 40] | 0.03 µM
C=CC(=O)N1CC[C@@H]2[C@H]1CN2c1nc(OC[C@@H]2CCCN2C)nc2c(F)c(-c3cncc4c3CCCC4)ncc12 [Example 41] | 0.015 µM
C=C(F)C(=O)N1CC[C@@H]2[C@H]1CN2c1nc(OC[C@@H]2CCCN2C)nc2c(F)c(-c3cncc4c3CCCC4)ncc12 [Example 42, 2-fluoro-1-(((1R,5R)-6-(8-fluoro-2-(((S)-1-methylpyrrolidin-2-yl)methoxy)-7]-(5,6,7,8-tetrahydroisoquinolin-4-yl)pyridino[4,3-d]pyrimidin-4-yl)-2,6-diazabicyclo[3.2.0]hept-2-yl)prop-2-en-1-one] | 0.035 µM
C=CC(=O)N1CC[C@@H]2[C@H]1CN2c1nc(OC[C@@H]2C[C@@H](F)CN2C)nc2c(F)c(-c3cncc4c3CCCC4)ncc12 [Example 43] | 0.016 µM
C=C(F)C(=O)N1CC[C@@H]2[C@H]1CN2c1nc(OC[C@@H]2C[C@@H](F)CN2C)nc2c(F)c(-c3cncc4c3CCCC4)ncc12 [Example 44] | 0.064 µM
C=CC(=O)N1CC[C@@H]2[C@H]1CN2c1nc(OCC23CCCN2CCC3)nc2c(F)c(-c3cncc4c3CCCC4)ncc12 [Example 45, 1-((1R,5R)-6-(8-fluoro-2-((tetrahydro-1H-pyrrolizin-7a(5H)-yl)methoxy)-7-(5,6,7,8-tetrahydroisoquinoline-4-yl)pyridino[4,3-d]pyrimidin-4-yl)-2,6-diazabicyclo[3.2.0]hept-2-yl)prop-2-en-1-one] | 0.01 µM
C=C(F)C(=O)N1CC[C@@H]2[C@H]1CN2c1nc(OCC23CCCN2CCC3)nc2c(F)c(-c3cncc4c3CCCC4)ncc12 [Example 46, 2-fluoro-1-(((1R,5R)-6-(8-fluoro-2-((tetrahydro-1H-pyrrolizin-7a(5H)-yl)methoxy))-7-(5,6,7,8-tetrahydroisoquinolin-4-yl)pyridino[4,3-d]pyrimidin-4-yl)-2,6-diazabicyclo[3.2.0]hept-2-yl)prop-2-en-1-one] | 0.03 µM
C=CC(=O)N1CC[C@@H]2[C@H]1CN2c1nc(OC[C@@]23CCCN2C[C@H](F)C3)nc2c(F)c(-c3cncc4c3CCCC4)ncc12 [Example 47] | 0.0065 µM
C=C(F)C(=O)N1CC[C@@H]2[C@H]1CN2c1nc(OC[C@@]23CCCN2C[C@H](F)C3)nc2c(F)c(-c3cncc4c3CCCC4)ncc12 [Example 48] | 0.02 µM
C=CC(=O)N1CCN(c2nc(OC[C@@H]3CCCN3C)nc3c(F)c(-c4cccc5c4SCCC5)ncc23)C[C@@H]1CC#N [Example 49, 2-((S)-1-acryloyl-4-(8-fluoro-2-(((S)-1-methylpyrrolidin-2-yl)methoxy)-7-(thiochroman-8-yl)pyridino[4,3-d]pyrimidin-4-yl)piperazin-2-yl)acetonitrile] | 0.057 µM
C=CC(=O)N1CCN(c2nc(OC[C@@H]3CCCN3C)nc3c(F)c(-c4cccc5c4CCOC5)ncc23)C[C@@H]1CC#N [Example 50, 2-((S)-1-acryloyl-4-(8-fluoro-7-(isochroman-5-yl)-2-(((S)-1-methylpyrrolidin-2-yl)methoxy)pyridino[4,3-d]pyrimidin-4-yl)piperazin-2-yl)acetonitrile] | 0.14 µM
C=CC(=O)N1CCN(c2nc(OC[C@@H]3CCCN3C)nc3c(F)c(-c4cccc5ccsc45)ncc23)C[C@@H]1CC#N [Example 51, 2-((S)-1-acryloyl-4-(7-(benzo[b]thien-7-yl)-8-fluoro-2-(((S)-1-methylpyrrolidin-2-yl)methoxy)pyridino[4,3-d]pyrimidin-4-yl)piperazin-2-yl)acetonitrile] | 0.148 µM
